# Assay results reported in patent publication US20080227748A1, “Medicament Made From Laminarine or Oligolaminarines For Treatment of Septicemia and Septic Shock” (LABORATOIRES GOEMAR, priority 2005, published 2008).
# Assay: Feeding treatment with Dectinan-enriched diet before injection of LPS (weight, consumption, glycemia, triglyceridemia, feces)
# Set-up: species or system male Wistar Han rats
# Conditions: rat, in vivo
# Method: The animals selected for the abovesaid studies were male Wistar Han rats (Harlem, Netherlands).
# The experiments were carried out on two groups of eight rats each.
# The rats of one of the two groups—“control group”—had available to them “ad libitum” a standard feed with the AO4 trade name (UAR, France); the rats of the other group had available to them the same feed but supplemented with the above said laminarin, sold under the “Dectinan” trade name; in a first phase and for four days (−4 to −1), the feed was enriched with 5% by weight of Dectinan and then with 10% by weight in a second phase of 21 days (days 0 to 21); this second group of rats is denoted by “Dectinan group”.
# The days on which the various withdrawals and measurements are made are identified in table I below.
# a) Before injection of LPS • bodyweight • weight of wet feces and feces after freeze drying (collected over 24 h) • weight of the diet and of the drinking water • taking of blood from the caudal vein: quantitative determination of triglycerides and glucose
# In this regard, the values mentioned later represent the mean ±SDM (Standard Deviation of the Mean). […]
substance,measurement,value
laminarin [Dectinan®],Total consumption of drinking water,611.5 ± 17.9 mL
same,Total consumption of feed,431.5 ± 6.0 g
